Test results published in PMC5238504 (Scientific Reports, 2017).

Columns and labels:
M5 muscarinic receptor = target: T1, M5 muscarinic receptor (Homo sapiens, UniProt P08912); test: slowing of [3H]NMS dissociation by cold NMS, CHO membranes; assay type: binding; details: second site; allosteric; apparent affinity for the receptor-[3H]NMS complex; slope factor nH fitted; pH […] °C, […] NaCl, […] MgCl2
T1 construct: gene CHRM5; expressed in CHO cells, membranes; species printed only for M2 and M3
T1 sequence (P08912 1-532): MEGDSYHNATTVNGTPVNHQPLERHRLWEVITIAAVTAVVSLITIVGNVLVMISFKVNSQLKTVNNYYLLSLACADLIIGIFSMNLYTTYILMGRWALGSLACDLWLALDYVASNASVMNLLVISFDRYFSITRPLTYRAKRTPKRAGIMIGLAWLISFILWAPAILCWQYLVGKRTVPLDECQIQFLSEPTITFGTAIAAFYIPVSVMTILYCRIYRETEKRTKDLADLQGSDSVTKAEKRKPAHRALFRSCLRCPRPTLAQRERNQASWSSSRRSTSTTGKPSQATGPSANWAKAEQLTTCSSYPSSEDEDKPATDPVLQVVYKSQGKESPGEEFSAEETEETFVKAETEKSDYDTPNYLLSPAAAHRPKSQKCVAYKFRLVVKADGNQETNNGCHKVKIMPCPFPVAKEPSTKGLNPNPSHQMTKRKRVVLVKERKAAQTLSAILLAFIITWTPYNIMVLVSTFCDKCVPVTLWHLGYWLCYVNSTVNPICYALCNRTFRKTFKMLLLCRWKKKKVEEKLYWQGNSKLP

[1] = target: T2, M2 muscarinic receptor (M2 wt) (Homo sapiens, UniProt P08172); test: as above; assay type: binding; details: second site; allosteric; apparent affinity for the receptor-[3H]NMS complex; slope factor nH fitted; pH […] °C, […] NaCl, […] MgCl2
T2 construct: gene CHRM2
T2 sequence (P08172 1-466): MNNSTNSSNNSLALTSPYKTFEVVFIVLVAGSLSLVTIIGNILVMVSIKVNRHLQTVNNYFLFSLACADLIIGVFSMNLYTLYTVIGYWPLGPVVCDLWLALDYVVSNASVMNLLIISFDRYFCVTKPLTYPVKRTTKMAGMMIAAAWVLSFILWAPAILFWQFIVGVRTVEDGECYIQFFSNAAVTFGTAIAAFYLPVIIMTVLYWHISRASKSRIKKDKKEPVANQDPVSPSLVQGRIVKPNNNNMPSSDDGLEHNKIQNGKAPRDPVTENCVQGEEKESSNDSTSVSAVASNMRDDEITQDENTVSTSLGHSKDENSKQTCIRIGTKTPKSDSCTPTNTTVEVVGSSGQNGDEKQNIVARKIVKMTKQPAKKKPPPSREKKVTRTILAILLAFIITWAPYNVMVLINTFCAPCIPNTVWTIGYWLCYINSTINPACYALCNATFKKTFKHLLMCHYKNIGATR
Description: slowing of [3H]NMS dissociation by cold NMS, CHO membranes on M2 muscarinic receptor (M2 wt)

## C[N+]1(C)[C@@H]2C[C@@H](OC(=O)[C@H](CO)c3ccccc3)C[C@H]1[C@@H]1O[C@@H]12 [N-methylscopolamine]
M5 muscarinic receptor
  NMS / pKA: 3.86 ± 0.03 negative logarithm
[1]
  NMS / pKA: 3.62 ± 0.03 negative logarithm
